Experimental data: patent publication US7887852B2, “Soft gel capsules containing polymethoxylated flavones and palm oil tocotrienols” (Soft Gel Technologies, Inc., priority 2005, dated 2011)

Experiment: Randomized crossover pharmacokinetics study of two Sytrinol formulations, single oral dose, serum tangeretin and nobiletin by LC/MS/MS
Set-up: species or system healthy human subjects
Settings: human, in vivo
Experimental: The following experiments were undertaken to determine whether citrus polymethoxylated flavones (PMFs) can be detected and quantitated in serum obtained from healthy adults after a single-dose administration of Sytrinol™ capsules (containing 1053 mg of total PMFs) and to compare oral bioavailabilities of two Sytrinol™ formulations in healthy human subjects. This study was conducted as a randomized crossover trial in ten healthy adults, five men and five women, age 23±3 years. […]
Peripheral blood was taken by venipuncture at time 0 (baseline) and times 0.25, 0.5, 1, 2, 4, 6, 8, 24 and 48 hours after ingestion of Sytrinol™ capsules. […] Tangeretin and nobiletin were detected in serum samples and quantitated by LC/MS/MS.
The study was designed to determine whether PMFs can be detected and quantitated in serum obtained from healthy adults after a single dose administration of Sytrinol™ capsules (containing 1053 mg of total PMFs) and to compare oral bioavailabilities of two Sytrinol™ formulations in healthy human subjects. […]
A method of serum extraction and LC/MS/MS analysis of PMF was developed. A Varian 1200 L LC/MS/MS system equipped with ESI and APCI sources was used to identify and quantify tangeretin and nobiletin. […]

SMILES: COc1ccc(-c2cc(=O)c3c(OC)c(OC)c(OC)c(OC)c3o2)cc1OC [nobiletin]
- AUC0-48h of nobiletin compared with tangeretin: significantly higher
